We go through one compound from ChEMBL document CHEMBL4765420, “Design, synthesis and biological evaluation of novel HDAC inhibitors with improved pharmacokinetic profile in breast cancer” (Eur J Med Chem, 2020).

Experiment [1] relates to MDA-MB-231. Briefly: Antiproliferative activity against human MDA-MB-231 cells measured after 24 hrs by MTT assay. Particulars: MDA-MB-231, 24 h. Format: functional, cell-based. (In general: Tetrazolium assays rely on reduction of a dye to a coloured formazan, in cell work by metabolically active cells.)
Experiment [2] addresses Histone deacetylase 3/NCoR1 (Homo sapiens, UniProt O15379). Briefly: Inhibition of recombinant human GST-fused HDAC3/NCOR1 (397 to 503 residues) expressed in baculovirus infected insect cells using Ac-Leu-Gly-Lys(Ac)-AMC as substrate measured after 30 mins by fluorescence assay.
For another experiment, the target named is Histone deacetylase 5 (Homo sapiens, UniProt Q9UQL6). Briefly: Inhibition of recombinant human full-length N-terminal GST-tagged HDAC5 expressed in baculovirus infected Sf9 insect cells using AcLeu-Gly-Lys(Tfa)-AMC as substrate measured after 30 mins by fluorescence assay.
For the next experiment, the target named is Histone deacetylase 9 (Homo sapiens, UniProt Q9UKV0). The experiment in a line: Inhibition of recombinant human full-length N-terminal GST-tagged HDAC9 (1 to 1069 residues) expressed in wheat germ expression system using Ac-Leu-Gly-Lys(Tfa)-AMC as substrate measured after 30 mins by fluorescence assay.
Experiment [3] has as its target T1, Polyamine deacetylase HDAC10 (Homo sapiens, UniProt Q969S8).
T1 sequence (Q969S8 whole entry): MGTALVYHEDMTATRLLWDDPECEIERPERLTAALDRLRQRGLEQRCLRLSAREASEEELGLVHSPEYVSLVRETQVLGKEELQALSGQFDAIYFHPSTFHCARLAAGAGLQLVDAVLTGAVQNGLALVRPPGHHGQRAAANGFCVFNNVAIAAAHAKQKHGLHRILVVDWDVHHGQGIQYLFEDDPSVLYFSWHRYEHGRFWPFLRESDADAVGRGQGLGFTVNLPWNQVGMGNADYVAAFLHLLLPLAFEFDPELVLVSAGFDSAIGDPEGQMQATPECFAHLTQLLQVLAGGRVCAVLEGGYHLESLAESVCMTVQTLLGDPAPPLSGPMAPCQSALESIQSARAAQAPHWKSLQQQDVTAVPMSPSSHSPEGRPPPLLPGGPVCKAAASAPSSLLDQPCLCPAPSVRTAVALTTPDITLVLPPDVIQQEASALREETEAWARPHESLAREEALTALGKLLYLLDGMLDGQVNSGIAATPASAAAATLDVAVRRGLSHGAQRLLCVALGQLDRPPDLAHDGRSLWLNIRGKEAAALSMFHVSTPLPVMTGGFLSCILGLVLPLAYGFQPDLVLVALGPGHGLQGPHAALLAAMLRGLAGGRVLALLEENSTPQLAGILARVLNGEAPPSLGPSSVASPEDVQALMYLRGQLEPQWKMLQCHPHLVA
The experiment in a line: Inhibition of recombinant human C-terminal His-tagged HDAC10 expressed in baculovirus infected Sf9 insect cells using Ac-Arg-His-Lys(Ac)-Lys(Ac)-AMC as substrate measured after 30 mins by fluorescence assay.

In another experiment the target is T2, Histone deacetylase 11 (Homo sapiens, UniProt Q96DB2).
T2 sequence (Q96DB2 whole entry): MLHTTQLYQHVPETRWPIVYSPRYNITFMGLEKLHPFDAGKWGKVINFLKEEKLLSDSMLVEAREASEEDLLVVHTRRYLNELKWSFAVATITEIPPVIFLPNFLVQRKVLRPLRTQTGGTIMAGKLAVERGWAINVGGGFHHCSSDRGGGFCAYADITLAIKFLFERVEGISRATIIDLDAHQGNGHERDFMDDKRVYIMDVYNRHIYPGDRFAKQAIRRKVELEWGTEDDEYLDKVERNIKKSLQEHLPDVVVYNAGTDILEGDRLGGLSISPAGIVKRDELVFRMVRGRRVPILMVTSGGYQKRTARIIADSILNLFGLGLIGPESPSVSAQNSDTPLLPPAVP
The experiment in a line: Inhibition of recombinant human N-terminal His-tagged HDAC11 expressed in baculovirus infected Sf9 insect cells using Ac-Arg-His-Lys(Ac)-Lys(Ac)-AMC as substrate measured after 30 mins by fluorescence assay.

The test system of experiment [4] is MDA-MB-231. The experiment in a line: Antiproliferative activity against human MDA-MB-231 cells measured after 48 hrs by MTT assay. As to conditions: MDA-MB-231, 48 h. In kind it is functional, cell-based.
The test system of experiment [5] is MDA-MB-231. The experiment in a line: Antiproliferative activity against human MDA-MB-231 cells measured after 72 hrs by MTT assay. In kind it is functional, cell-based. As to conditions: MDA-MB-231, 72 h.
The subject of experiment [6] is MDA-MB-231. Briefly: Antiproliferative activity against human MDA-MB-231 cells measured after 96 hrs by MTT assay. Format: functional, cell-based. Particulars: MDA-MB-231, 96 h.
Experiment [7] has as its system MDA-MB-231. Briefly: Induction of apoptosis in human MDA-MB-231 cells assessed as increase in DNA fragmentation at 2.5 to 10 uM measured after 24 hrs by Hoechst 33258 staining based immunofluorescence assay. Format: functional, cell-based. Particulars: dose 2.5-10 µM.
The subject of experiment [8] is MDA-MB-231. Briefly: Induction of apoptosis in human MDA-MB-231 cells assessed as early apoptotic cells at 2.5 uM measured after 24 hrs by Annexin-V/propidium iodide staining based flow cytometry (reference value: 0.69 to 0.92%). Format: functional. In general terms: In flow cytometry, cells or beads pass a laser one at a time.
In experiment [9] the test system is MDA-MB-231. Briefly: Induction of apoptosis in human MDA-MB-231 cells assessed as viable cells at 5 uM measured after 24 hrs by Annexin-V/propidium iodide staining based flow cytometry (reference value: 95.68 to 98.38%). Format: functional. As to conditions: read-out: Activity.
Experiment [10] deals with MDA-MB-231. Briefly: Induction of apoptosis in human MDA-MB-231 cells assessed as early apoptotic cells at 5 uM measured after 24 hrs by Annexin-V/propidium iodide staining based flow cytometry (reference value: 0.69 to 0.92%). Format: functional.
The subject of experiment [11] is MDA-MB-231. The experiment in a line: Induction of apoptosis in human MDA-MB-231 cells assessed as necrotic cells at 5 uM measured after 24 hrs by Annexin-V/propidium iodide staining based flow cytometry (reference value: 0.22 to 0.46%). In kind it is functional.
Experiment [12] concerns MDA-MB-231. Briefly: Induction of apoptosis in human MDA-MB-231 cells assessed as viable cells at 10 uM measured after 24 hrs by Annexin-V/propidium iodide staining based flow cytometry (reference value: 95.68 to 98.38%). Format: functional. As to conditions: read-out: Activity.
Experiment [13] has as its system MDA-MB-231. Briefly: Induction of apoptosis in human MDA-MB-231 cells assessed as necrotic cells at 10 uM measured after 24 hrs by Annexin-V/propidium iodide staining based flow cytometry (reference value: 0.22 to 0.46%). In kind it is functional.
Experiment [14] deals with MDA-MB-231. Briefly: Induction of apoptosis in human MDA-MB-231 cells assessed as increase in cleaved caspase-3 expression at 2.5 to 10 uM measured after 24 hrs by Western blot analysis. Format: functional, cell-based. As to conditions: dose 2.5-10 µM. In general terms: Immunoblotting shows a protein as a band on a membrane.
Experiment [15] concerns MDA-MB-231. Briefly: Induction of apoptosis in human MDA-MB-231 cells assessed as increase in cleaved caspase-8 expression at 2.5 to 10 uM measured after 24 hrs by Western blot analysis. Format: functional, cell-based. Particulars: dose 2.5-10 µM.
The test system of experiment [16] is MDA-MB-231. The experiment in a line: Induction of apoptosis in human MDA-MB-231 cells assessed as increase in cleaved caspase-9 expression at 2.5 to 10 uM measured after 24 hrs by Western blot analysis. As to conditions: dose 2.5-10 µM. In kind it is functional, cell-based.
In experiment [17] the test system is MDA-MB-231. Briefly: Inhibition of cell migration in human MDA-MB-231 cells at 2.5 to 10 uM measured after 24 hrs using crystal violet staining by phase-contrast microscopy based transwell assay. Format: functional. Particulars: dose 2.5-10 µM.
Experiment [18] relates to MDA-MB-231. The experiment in a line: Induction of autophagy in human MDA-MB-231 cells assessed as increase in LC3II expression at 2.5 to 10 uM measured after 24 hrs by Western blot analysis. In kind it is functional, cell-based. Particulars: dose 2.5-10 µM.
Experiment [19] relates to MDA-MB-231. The experiment in a line: Induction of autophagy in human MDA-MB-231 cells assessed as decrease in SQSTM1/p62 expression at 2.5 to 10 uM measured after 24 hrs by Western blot analysis. Format: functional, cell-based. Particulars: dose 2.5-10 µM.

The structures appear in SMILES notation. Active and inactive are the calls of the source. The calls are words filed in the database; no cut-off is given here.

Histone deacetylase 5, sequence (Q9UQL6 whole entry, the tested form may be a part): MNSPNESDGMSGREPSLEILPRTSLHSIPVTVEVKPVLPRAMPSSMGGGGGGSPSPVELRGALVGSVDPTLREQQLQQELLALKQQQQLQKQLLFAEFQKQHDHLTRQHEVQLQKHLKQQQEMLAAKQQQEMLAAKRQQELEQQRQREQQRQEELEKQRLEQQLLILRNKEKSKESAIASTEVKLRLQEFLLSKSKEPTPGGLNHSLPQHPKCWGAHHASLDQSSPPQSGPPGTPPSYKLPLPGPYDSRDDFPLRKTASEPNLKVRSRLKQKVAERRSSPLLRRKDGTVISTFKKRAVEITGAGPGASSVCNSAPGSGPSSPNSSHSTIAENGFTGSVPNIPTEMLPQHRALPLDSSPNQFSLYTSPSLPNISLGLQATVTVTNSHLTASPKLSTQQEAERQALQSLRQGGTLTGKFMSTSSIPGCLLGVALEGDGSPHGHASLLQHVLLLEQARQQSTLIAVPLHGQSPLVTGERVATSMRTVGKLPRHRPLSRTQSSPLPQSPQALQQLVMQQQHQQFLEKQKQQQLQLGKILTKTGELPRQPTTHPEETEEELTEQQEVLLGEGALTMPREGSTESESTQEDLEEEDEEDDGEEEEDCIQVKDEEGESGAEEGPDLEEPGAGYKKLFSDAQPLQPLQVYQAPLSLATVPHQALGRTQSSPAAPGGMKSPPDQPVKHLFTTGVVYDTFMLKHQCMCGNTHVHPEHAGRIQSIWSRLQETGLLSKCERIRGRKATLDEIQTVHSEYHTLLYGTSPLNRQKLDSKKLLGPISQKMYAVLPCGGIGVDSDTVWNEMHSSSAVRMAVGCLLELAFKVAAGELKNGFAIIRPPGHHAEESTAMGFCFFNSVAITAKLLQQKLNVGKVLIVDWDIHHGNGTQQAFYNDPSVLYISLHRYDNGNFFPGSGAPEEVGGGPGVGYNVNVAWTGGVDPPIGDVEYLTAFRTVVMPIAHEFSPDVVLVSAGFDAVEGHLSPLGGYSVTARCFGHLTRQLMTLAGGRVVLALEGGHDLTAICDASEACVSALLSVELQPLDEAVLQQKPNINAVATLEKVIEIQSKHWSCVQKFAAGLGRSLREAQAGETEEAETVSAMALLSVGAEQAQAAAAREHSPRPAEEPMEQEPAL
Histone deacetylase 3/NCoR1, sequence (O15379 whole entry, the tested form may be a part): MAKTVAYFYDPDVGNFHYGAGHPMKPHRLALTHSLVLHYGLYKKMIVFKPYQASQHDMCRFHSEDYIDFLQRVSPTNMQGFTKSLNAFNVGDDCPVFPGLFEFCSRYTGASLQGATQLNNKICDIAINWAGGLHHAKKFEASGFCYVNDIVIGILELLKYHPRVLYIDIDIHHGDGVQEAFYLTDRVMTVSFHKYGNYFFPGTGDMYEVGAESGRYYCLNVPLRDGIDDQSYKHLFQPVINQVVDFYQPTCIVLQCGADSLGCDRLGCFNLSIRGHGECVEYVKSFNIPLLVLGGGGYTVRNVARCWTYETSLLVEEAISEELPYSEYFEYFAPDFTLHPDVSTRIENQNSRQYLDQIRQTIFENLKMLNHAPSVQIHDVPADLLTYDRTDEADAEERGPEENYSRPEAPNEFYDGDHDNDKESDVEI
Histone deacetylase 3/NCoR1, sequence (O75376 whole entry, further chain, the tested form may be a part): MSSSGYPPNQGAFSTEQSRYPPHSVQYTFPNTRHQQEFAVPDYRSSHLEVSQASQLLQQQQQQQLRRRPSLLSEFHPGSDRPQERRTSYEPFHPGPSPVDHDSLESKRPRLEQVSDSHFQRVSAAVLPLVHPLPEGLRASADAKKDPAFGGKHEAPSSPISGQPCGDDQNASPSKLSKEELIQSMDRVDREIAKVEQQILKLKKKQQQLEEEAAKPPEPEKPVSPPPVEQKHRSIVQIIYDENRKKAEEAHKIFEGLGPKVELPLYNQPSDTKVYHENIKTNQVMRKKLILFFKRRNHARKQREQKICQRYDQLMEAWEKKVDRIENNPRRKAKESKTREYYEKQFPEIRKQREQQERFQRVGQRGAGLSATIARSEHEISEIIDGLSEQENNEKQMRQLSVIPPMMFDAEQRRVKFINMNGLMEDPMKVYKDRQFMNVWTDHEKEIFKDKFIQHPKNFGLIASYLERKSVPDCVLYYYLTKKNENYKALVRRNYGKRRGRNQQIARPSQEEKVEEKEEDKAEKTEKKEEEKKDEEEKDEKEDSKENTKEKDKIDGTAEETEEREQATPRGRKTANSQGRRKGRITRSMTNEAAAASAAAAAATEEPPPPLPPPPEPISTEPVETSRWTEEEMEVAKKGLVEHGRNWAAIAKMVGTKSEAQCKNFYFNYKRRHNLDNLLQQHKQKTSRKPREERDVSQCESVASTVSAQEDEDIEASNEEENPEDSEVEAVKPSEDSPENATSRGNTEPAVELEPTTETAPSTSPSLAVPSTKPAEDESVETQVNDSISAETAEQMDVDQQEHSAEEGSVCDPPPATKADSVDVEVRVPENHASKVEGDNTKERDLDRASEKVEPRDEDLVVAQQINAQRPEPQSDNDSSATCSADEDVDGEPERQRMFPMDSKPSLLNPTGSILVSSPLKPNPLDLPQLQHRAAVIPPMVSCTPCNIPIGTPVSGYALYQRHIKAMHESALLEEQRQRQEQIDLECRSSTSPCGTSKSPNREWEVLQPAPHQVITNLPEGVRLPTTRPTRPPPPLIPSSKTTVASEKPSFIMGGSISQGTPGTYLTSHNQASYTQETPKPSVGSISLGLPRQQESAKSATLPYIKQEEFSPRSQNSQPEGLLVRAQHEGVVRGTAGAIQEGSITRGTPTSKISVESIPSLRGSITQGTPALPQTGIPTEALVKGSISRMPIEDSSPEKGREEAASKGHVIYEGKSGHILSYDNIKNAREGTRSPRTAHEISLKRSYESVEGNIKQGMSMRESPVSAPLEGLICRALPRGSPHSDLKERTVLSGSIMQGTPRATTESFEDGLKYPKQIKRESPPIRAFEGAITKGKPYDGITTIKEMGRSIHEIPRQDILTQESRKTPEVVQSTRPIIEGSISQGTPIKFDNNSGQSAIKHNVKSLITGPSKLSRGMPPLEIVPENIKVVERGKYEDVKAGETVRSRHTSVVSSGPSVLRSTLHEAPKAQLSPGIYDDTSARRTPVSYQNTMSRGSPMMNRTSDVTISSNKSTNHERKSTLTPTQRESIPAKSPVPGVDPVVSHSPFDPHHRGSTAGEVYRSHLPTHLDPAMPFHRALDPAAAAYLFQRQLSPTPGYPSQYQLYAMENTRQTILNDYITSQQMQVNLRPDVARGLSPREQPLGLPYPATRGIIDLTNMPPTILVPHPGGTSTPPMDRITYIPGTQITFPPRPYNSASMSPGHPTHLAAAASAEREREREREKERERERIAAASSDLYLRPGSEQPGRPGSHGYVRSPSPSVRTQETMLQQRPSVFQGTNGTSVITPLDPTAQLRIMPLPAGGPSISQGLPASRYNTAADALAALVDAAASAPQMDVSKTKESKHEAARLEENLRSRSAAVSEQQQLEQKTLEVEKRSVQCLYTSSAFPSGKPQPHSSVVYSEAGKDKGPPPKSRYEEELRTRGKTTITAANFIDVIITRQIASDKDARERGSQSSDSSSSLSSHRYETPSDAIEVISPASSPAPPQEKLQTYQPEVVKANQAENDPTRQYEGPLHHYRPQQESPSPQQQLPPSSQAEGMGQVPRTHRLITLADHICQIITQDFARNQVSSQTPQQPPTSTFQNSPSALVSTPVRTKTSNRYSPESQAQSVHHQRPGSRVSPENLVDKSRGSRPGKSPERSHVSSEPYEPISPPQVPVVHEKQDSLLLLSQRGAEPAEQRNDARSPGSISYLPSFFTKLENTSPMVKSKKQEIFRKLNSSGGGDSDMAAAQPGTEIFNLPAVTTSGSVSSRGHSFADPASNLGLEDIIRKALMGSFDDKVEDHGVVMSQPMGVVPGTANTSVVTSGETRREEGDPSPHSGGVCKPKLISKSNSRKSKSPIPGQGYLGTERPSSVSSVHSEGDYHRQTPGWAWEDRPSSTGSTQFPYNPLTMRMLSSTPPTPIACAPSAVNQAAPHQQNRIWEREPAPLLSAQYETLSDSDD
Histone deacetylase 9, sequence (Q9UKV0 whole entry, the tested form may be a part): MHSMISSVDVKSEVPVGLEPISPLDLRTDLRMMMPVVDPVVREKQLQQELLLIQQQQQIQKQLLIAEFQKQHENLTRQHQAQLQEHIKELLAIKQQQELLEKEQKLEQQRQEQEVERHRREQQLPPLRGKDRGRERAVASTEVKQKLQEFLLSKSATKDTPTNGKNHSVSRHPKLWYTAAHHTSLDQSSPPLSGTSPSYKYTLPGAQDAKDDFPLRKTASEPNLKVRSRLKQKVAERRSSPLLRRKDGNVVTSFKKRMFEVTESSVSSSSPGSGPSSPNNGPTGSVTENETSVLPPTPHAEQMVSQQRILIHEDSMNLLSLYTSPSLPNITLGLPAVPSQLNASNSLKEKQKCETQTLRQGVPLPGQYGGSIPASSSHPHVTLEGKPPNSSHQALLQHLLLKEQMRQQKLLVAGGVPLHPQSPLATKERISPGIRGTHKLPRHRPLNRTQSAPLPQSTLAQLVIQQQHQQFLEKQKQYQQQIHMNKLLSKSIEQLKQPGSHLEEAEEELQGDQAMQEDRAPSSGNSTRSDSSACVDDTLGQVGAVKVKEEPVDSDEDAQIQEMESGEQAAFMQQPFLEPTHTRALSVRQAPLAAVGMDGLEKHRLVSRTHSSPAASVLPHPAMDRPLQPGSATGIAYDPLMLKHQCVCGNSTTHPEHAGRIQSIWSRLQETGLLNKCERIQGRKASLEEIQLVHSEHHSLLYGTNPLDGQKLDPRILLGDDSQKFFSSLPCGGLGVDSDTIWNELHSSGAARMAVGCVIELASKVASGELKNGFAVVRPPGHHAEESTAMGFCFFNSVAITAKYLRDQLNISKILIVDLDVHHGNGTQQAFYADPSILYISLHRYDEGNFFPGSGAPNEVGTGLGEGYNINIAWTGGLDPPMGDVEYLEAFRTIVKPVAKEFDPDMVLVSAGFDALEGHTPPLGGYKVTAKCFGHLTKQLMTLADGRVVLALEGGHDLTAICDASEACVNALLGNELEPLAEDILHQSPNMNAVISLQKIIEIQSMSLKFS

The term IC50 denotes the concentration that inhibits the measured activity by half. On to `COc1cc(OC)c2c(N3CCS(=O)(=O)CC3)nc(-c3cc(C)c(OCCCCCC(=O)NO)c(C)c3)nc2c1`, for which the IC50 with MDA-MB-231 [1] was 2370 nM; in experiment [2], 106 nM; at Histone deacetylase 5, 688 nM; on Histone deacetylase 9 it was above 1000 nM; in experiment [3], 78.2 nM; on Histone deacetylase 11 it was above 1000 nM. Moreover, the IC50 with MDA-MB-231 [4] is 1520 nM; in the experiment with MDA-MB-231 [5], 898 nM; in the experiment on MDA-MB-231 [6] it was 1340 nM. Besides, the result in the experiment on MDA-MB-231 [7], in the experiment with MDA-MB-231 [14], in the experiment with MDA-MB-231 [15], in the experiment on MDA-MB-231 [16], in the experiment with MDA-MB-231 [18] and in the experiment on MDA-MB-231 [19] was Active. The Activity in the experiment with MDA-MB-231 [8] came out at 11.77%; in the experiment with MDA-MB-231 [10], 16.28%; in the experiment with MDA-MB-231 [11] it was 0.41%; in the experiment with MDA-MB-231 [13], 0.26%. For the same compound, the viability at 5 µM with MDA-MB-231 [9] was found to be 71.5%. The viability at 10 µM in the experiment on MDA-MB-231 [12] stood at 25.6%. The inhibition entry with MDA-MB-231 [17] was “Active”.
